Target: Human serum albumin (HSA) (Homo sapiens, UniProt P02768)
Assay: fluorescence quenching titration
Assay type: binding

Human serum albumin (HSA), sequence (P02768 25-609): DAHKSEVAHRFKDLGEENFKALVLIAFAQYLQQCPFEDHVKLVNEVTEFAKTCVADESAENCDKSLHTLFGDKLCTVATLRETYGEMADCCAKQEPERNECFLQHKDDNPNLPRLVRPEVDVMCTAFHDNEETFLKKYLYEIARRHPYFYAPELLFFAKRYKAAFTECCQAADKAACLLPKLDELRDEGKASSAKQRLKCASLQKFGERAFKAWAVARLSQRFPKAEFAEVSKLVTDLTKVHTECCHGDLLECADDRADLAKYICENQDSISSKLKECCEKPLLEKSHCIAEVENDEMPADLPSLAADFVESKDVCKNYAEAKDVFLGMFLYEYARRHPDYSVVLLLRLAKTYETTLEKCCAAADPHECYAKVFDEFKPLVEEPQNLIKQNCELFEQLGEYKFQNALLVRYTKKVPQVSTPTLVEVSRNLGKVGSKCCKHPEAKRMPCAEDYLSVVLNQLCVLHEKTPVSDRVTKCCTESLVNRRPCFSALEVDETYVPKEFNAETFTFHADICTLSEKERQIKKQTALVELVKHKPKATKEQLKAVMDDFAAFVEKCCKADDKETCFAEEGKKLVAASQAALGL

In the case of `CCCCCCCCc1ccc(CCC(N)(CO)CO)cc1` [Fingolimod], the Kd is reported as 235 µM.

Source: paper PMC10182447 (BioImpacts : BI, 2022)
